This note sets out measurements from patent US10975068B2, “6-aminopyridin-3-yl thiazoles as modulators of RORγT” (Janssen Pharmaceutica NV, priority 2016, dated 2021).

Usually Kd stands for the constant that tells how readily two partners part at equilibrium. By inhibition is commonly meant the drop in the measured response relative to a control, in per cent. The IC50 is the concentration at which inhibition is half-maximal.

Like-named read-outs stand apart in the source and are kept apart here.

Assay [1] addresses human RORγt ligand binding domain (RORγt LBD) (Homo sapiens (Human), UniProt P51449). Briefly: RORγt ThermoFluor® assay (thermal shift binding). The conditions noted are these: read-out: ThermoFluor® Assay, Kd. The essentials:
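His-tagged human RORγt LBD (0.065 mg/mL) with 60 μM 1,8-ANS in 100 mM Hepes pH 7.0, 10 mM NaCl, 2.5 mM GSH, 0.002% Tween-20 was heated at 1 °C/min.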
A general note: Differential scanning fluorimetry follows unfolding on heating by fluorescence.

For another assay, the target named is full-length human RORγt (Homo sapiens (Human), UniProt P51449). As to the kind of experiment: RORγt (full-length human) reporter assay, Conditions B or C. Format: cell-based. The conditions noted are these: for inhibition at 3 µM: at 3 μM compound concentration; for IC50: read-out: RORγt (FL) Reporter Assay B or C, IC50; for RORγt (FL) Reporter Assay B or C, % inhibition (value marked *): marked *: footnote not given; for RORγt (FL) Reporter Assay B or C, % inhibition (value marked ***): marked ***: footnote not given. The essentials:
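HEK293T cells transiently co-transfected with GAL4-DBD–full-length human RORγt (nt 142-1635, NM_001001523.1) plus GAL4-firefly and CMV-Renilla luciferase reporters; compounds added 4-6 h post-transfection for 16-20 h in 1.3% FBS, 0.1% DMSO. Firefly signal normalized to DMSO and saturating reference compound, then to Renilla; IC50 from concentration plots.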
Background: Reporter assays use an easily measured gene product as a stand-in for the process of interest.

Setting [2] is: read-out: RORγt (FL) Reporter Assay B or C, % inhibition.

Chain of full-length human RORγt (P51449 other isoform, or with tags, fused parts or gaps): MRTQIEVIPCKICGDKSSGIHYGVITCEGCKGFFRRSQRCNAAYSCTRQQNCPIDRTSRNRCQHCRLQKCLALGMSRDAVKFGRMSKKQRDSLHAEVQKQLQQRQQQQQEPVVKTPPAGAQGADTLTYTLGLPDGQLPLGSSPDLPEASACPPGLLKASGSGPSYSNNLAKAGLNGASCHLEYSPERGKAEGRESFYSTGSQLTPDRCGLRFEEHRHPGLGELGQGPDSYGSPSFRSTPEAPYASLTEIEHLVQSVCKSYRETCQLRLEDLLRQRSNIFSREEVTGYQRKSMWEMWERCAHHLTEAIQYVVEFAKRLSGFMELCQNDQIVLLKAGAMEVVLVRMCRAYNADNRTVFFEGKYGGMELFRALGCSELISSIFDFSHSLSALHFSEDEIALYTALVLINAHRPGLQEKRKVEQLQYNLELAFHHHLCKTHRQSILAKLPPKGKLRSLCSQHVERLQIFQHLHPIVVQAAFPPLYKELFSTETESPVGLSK
Chain of human RORγt ligand binding domain (RORγt LBD) (P51449 other isoform, or with tags, fused parts or gaps): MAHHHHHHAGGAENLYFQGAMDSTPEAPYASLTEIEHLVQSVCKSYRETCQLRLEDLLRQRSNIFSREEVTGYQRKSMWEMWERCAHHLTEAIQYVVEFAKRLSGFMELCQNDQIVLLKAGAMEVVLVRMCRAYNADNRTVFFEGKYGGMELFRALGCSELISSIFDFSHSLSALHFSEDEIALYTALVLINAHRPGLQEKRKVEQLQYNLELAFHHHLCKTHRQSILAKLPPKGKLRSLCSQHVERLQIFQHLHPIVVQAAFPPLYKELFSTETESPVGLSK

As for `C[C@H](Nc1cc(C(F)F)c(-c2sc(C(=O)N[C@@H]3CC[C@H]3O)nc2C(=O)N2CCC[C@@H]2C)cn1)C(F)(F)F` (relative stereo) [Example 387, 5-(4-(Difluoromethyl)-6-(((S)-1,1,1-trifluoropropan-2-yl)amino)pyridin-3-yl)-N-(1R*,2R*)-2-hydroxycyclobutyl)-4-((S)-2-methylpyrrolidine-1-carbonyl)thiazole-2-carboxamide], in assay [1], the Kd was determined as 9.9 nM. On full-length human RORγt (setting [2]), the inhibition at 3 µM is 102%. Also, the IC50 at full-length human RORγt is 130 nM.
Take `CC[C@H](Nc1cc(C(F)F)c(-c2sc(C(=O)N[C@H]3CCC[C@@H]3O)nc2C(=O)N2CCC[C@@H]2C)cn1)C(F)(F)F` [Example 229, 5-(4-(Difluoromethyl)-6-(((1S)-1-(trifluoromethyl)propyl)amino)-3-pyridyl)-N-((1S,2S)-2-hydroxycyclopentyl)-4-((2S)-2-methylpyrrolidine-1-carbonyl)thiazole-2-carboxamide]: in assay [1], the equilibrium dissociation constant (Kd) is 0.97 nM. Further, on full-length human RORγt (Conditions B or C), the “RORγt (FL) Reporter Assay B or C, % inhibition (value marked *)” value (from here on “RORγt … % inhibition (value marked *)”) is 83* % and the IC50 was 42 nM.
Consider `C[C@H](Nc1cc(C(F)F)c(-c2sc(C(=O)NC3CCOCC3)nc2C(=O)N2CCC[C@@H]2C)cn1)C(F)(F)F` [Example 287, 5-(4-(Difluoromethyl)-6-(((S)-1,1,1-trifluoropropan-2-yl)amino)pyridin-3-yl)-4-((S)-2-methylpyrrolidine-1-carbonyl)-N-(tetrahydro-2H-pyran-4-yl)thiazole-2-carboxamide], for which the Kd in assay [1] amounted to 4.3 nM. In addition, the inhibition at 3 µM at full-length human RORγt (setting [2]) came to 109%. Moreover, the IC50 at full-length human RORγt was 34 nM.
For `C[C@H]1CC(F)(F)CN1C(=O)c1nc(C(=O)NCC(C)(C)O)sc1-c1cnc(NC(C2CC2)C2CC2)cc1C(F)(F)F` [Example 138, (S)-5-(6-((Dicyclopropylmethyl)amino)-4-(trifluoromethyl)pyridin-3-yl)-4-(4,4-difluoro-2-methylpyrrolidine-1-carbonyl)-N-(2-hydroxy-2-methylpropyl)thiazole-2-carboxamide], the Kd in assay [1] was 0.62 nM. In addition, at full-length human RORγt (Conditions B or C), the “RORγt (FL) Reporter Assay B or C, % inhibition (value marked ***)” value was 100*** % and the IC50 turned out to be 12 nM.
Consider `C[C@H]1CC(F)(F)CN1C(=O)c1nc(C(=O)N[C@H]2C[C@H](O)C2)sc1-c1cnc(N[C@@H](C2CC2)C(F)(F)F)cc1C(F)F` [Example 315, 5-(6-(((S)-1-Cyclopropyl-2,2,2-trifluoroethyl)amino)-4-(difluoromethyl)pyridin-3-yl)-4-((S)-4,4-difluoro-2-methylpyrrolidine-1-carbonyl)-N-((1r,3S)-3-hydroxycyclobutyl)thiazole-2-carboxamide], for which, in assay [1], the Kd was determined as 2.9 nM. Also, the inhibition at 1 µM on full-length human RORγt (at 1 μM compound concentration, read-out: RORγt (FL) Reporter Assay B or C, % inhibition) was 99%. Also, the IC50 on full-length human RORγt stood at 15 nM.
In the case of `CC[C@@H](Nc1cc(C(F)F)c(-c2sc(C(=O)N[C@@H](C)C(C)(C)O)nc2C(=O)N2CCC[C@@H]2C)cn1)C(F)(F)F` [Example 230], the Kd in assay [1] was found to be 2.4 nM. For the same compound, at full-length human RORγt (Conditions B or C), the “RORγt … % inhibition (value marked *)” value was 99* % and the IC50 was found to be 15 nM.
In the case of `C[C@H]1CCCN1C(=O)c1nc(C(=O)N[C@H]2C[C@H](O)C2)sc1-c1cnc(NC(C)(C)C)cc1C(F)(F)F` [Example 258, 5-[6-(tert-Butylamino)-4-(trifluoromethyl)-3-pyridyl]-N-((1r,3S)-3-hydroxycyclobutyl)-4-[(2S)-2-methylpyrrolidine-1-carbonyl]thiazole-2-carboxamide], the Kd in assay [1] came to 3.5 nM. In addition, the inhibition at 3 µM on full-length human RORγt (setting [2]) was found to be 110%. The IC50 on full-length human RORγt is 65 nM.
The matching figures for `C[C@H]1CCCN1C(=O)c1nc(C(=O)N2CC[C@@](C)(O)C2)sc1-c1cnc(NC(C)(C)C)cc1C(F)(F)F` (relative stereo) [Example 366, (5-(6-(tert-Butylamino)-4-(trifluoromethyl)pyridin-3-yl)-2-((R*)-3-hydroxy-3-methylpyrrolidine-1-carbonyl)thiazol-4-yl)-((S)-2-methylpyrrolidin-1-yl)methanone]: 10 nM, 97% and 63 nM.
For `C[C@H]1CCCN1C(=O)c1nc(C(=O)NC2(CO)CC2)sc1-c1cnc(NC(C)(C)C)cc1C(F)(F)F` [Example 263, 5-[6-(tert-Butylamino)-4-(trifluoromethyl)-3-pyridyl]-N-[1-(hydroxymethyl)cyclopropyl]-4-[(2S)-2-methylpyrrolidine-1-carbonyl]thiazole-2-carboxamide], in that order: 1.1 nM, 107% and 6.6 nM.
On to `C[C@H](Nc1cc(C(F)(F)F)c(-c2sc(C(=O)NCC(C)(C)O)nc2C(=O)N2C3CCC2CC3)cn1)C1CCC1` (stereo in doubt) [Example 171, 4-((1s,4s)-7-Azabicyclo[2.2[1]heptane-7-carbonyl)-5-(6-(((S*)-1-cyclobutylethyl)amino)-4-(trifluoromethyl)pyridine-3-yl)-N-(2-hydroxy-2-methylpropyl)thiazole-2-carboxamide], for which the Kd in assay [1] amounted to 4 nM. For the same compound, at full-length human RORγt (Conditions B or C), the “RORγt … % inhibition (value marked *)” value is 108* % and the IC50 stood at 16 nM.
Consider `C[C@H](Nc1cc(C(F)F)c(-c2sc(C(=O)N[C@@H]3COC[C@@H]3O)nc2C(=O)N2CCC[C@@H]2C)cn1)C(F)(F)F` (single isomer, unassigned) [Example 159, 5-(4-(Difluoromethyl)-6-(((S)-1,1,1-trifluoropropan-2-yl)amino)pyridin-3-yl)-N-((3R*,4R*)-4-hydroxytetrahydrofuran-3-yl)-4-((S)-2-methylpyrrolidine-1-carbonyl)thiazole-2-carboxamide], for which the Kd in assay [1] was 22 nM. At full-length human RORγt (Conditions B or C), the “RORγt (FL) Reporter Assay B or C, % inhibition (value marked ***)” value was 93*** % and the IC50 turned out to be 32 nM.
As to `C[C@H](Nc1cc(C(F)F)c(-c2sc(C(=O)N[C@H]3CC[C@@H]3O)nc2C(=O)N2C3CCC2CC3)cn1)C(F)(F)F` (relative stereo) [Example 292, 4-((1s,4s)-7-Azabicyclo[2.2.1]heptane-7-carbonyl)-5-(4-(difluoromethyl)-6-(((S)-1,1,1-trifluoropropan-2-yl)amino)pyridin-3-yl)-N-((1S*,2S*)-2-hydroxycyclobutyl)thiazole-2-carboxamide], the Kd in assay [1] is 6.1 nM. Further, on full-length human RORγt (setting [2]), the inhibition at 3 µM is 106%. For the same compound, on full-length human RORγt, the IC50 amounted to 40 nM.
The matching figures for `C[C@H](Nc1cc(C(F)F)c(-c2sc(C(=O)N[C@H]3CC[C@H](O)C3)nc2C(=O)N2C3CCC2CC3)cn1)C(F)(F)F` [Example 411, 4-((1s,4s)-7-Azabicyclo[2.2.1]heptane-7-carbonyl)-5-[4-(difluoromethyl)-6-[[(1S)-2,2,2-trifluoro-1-methyl-ethyl]amino]-3-pyridyl]-N-[(1S,3S)-3-hydroxycyclopentyl]thiazole-2-carboxamide]: 3.6 nM, 100% and 110 nM.
For `CC[C@H](Nc1cc(C(F)F)c(-c2sc(C(=O)N[C@H](C)[C@@H](C)O)nc2C(=O)N2CCC[C@@H]2C)cn1)C(F)(F)F` (relative stereo) [Example 216, 5-(4-(Difluoromethyl)-6-(((S)-1,1,1-trifluorobutan-2-yl)amino)pyridin-3-yl)-N-((2R*,3R*)-3-hydroxybutan-2-yl)-4-((S)-2-methylpyrrolidine-1-carbonyl)thiazole-2-carboxamide], in assay [1], the Kd worked out at 4.1 nM. Moreover, on full-length human RORγt (Conditions B or C), the “RORγt … % inhibition (value marked *)” value is given as 96* % and the IC50 turned out to be 9.5 nM.
For `CC(C)(O)CNC(=O)c1nc(C(=O)N2C3CCC2CC3)c(-c2cnc(NC3CCCC3)cc2C(F)(F)F)s1` [Example 53, 4-((1s,4s)-7-Azabicyclo[2.2.1]heptane-7-carbonyl)-5-(6-(cyclopentylamino)-4-(trifluoromethyl)pyridin-3-yl)-N-(2-hydroxy-2-methylpropyl)thiazole-2-carboxamide], in that order: 5.8 nM, 109* % and 23 nM.
For the compound `C[C@H](Nc1cc(C(F)F)c(-c2sc(C(=O)N[C@@H]3CCC[C@H]3O)nc2C(=O)N2CCC[C@@H]2C)cn1)C(F)(F)F` [Example 283, 5-(4-(Difluoromethyl)-6-(((S)-1,1,1-trifluoropropan-2-yl)amino)pyridin-3-yl)-N-((1R,2R)-2-hydroxycyclopentyl)-4-((S)-2-methylpyrrolidine-1-carbonyl)thiazole-2-carboxamide], the Kd in assay [1] was found to be 1.9 nM. In addition, the inhibition at 3 µM on full-length human RORγt (setting [2]) worked out at 106%. Besides, the IC50 at full-length human RORγt came out at 54 nM.
As to `C[C@H]1CCCN1C(=O)c1nc(C(=O)N[C@H]2CC[C@@H]2O)sc1-c1cnc(NC(C)(C)C)cc1C(F)(F)F` (relative stereo) [Example 371, 5-(6-(tert-Butylamino)-4-(trifluoromethyl)pyridin-3-yl)-N-((1S*,2S*)-2-hydroxycyclobutyl)-4-((S)-2-methylpyrrolidine-1-carbonyl)thiazole-2-carboxamide], in assay [1], the Kd turned out to be 0.88 nM. The inhibition at 3 µM at full-length human RORγt (setting [2]) was 108%. For the same compound, on full-length human RORγt, the IC50 stood at 19 nM.
